Like-named read-outs stand apart in the source and are kept apart here.
What was measured:
Gingipain = test: Inhibition of bacterial virulence factor Gingipain; assay type: biochemical, P. gingivalis; conditions: at 200 uM for compounds, 0.001% for oils/extracts
Text: (§1) P. gingivalis is a gram-negative anaerobe implicated in periodontal disease in humans and companion animals. P. gingivalis infects the gingival sulcus, producing a number of virulence factors including bacterial enzymes such as gingipains, METase and Cystalysin. Gingipains act on several immune system molecules, including kinogens, complement factors, immunoglobins, resulting in fluid influx into the sulcus, neutrophil recruitment, and bleeding. The ultimate result is a host inflammatory response characterized by cyclooxygenase (COX) induction, metalloproteinase (MMP) expression, prostaglandin elevation and reactive oxygen elevations which result in tissue damage and bone resorption, eventually leading to tooth detachment. MMP's (including various subtypes, e.g., MMP 1, 2, 3, 8, 9, 12, 13), are host extracellular matrix proteases that contribute to tissue destruction and remodeling. COX enzymes catalyze the conversion of arachidonic acid into prostaglandins, which result in vasodilation, redness, puffiness and pain.
(§2) Where no data are reported is not an indication that the compound/active has no activity; rather that the compound was not tested for that activity.

PGE2 = test: Inhibition of host inflammation factor PGE2; assay type: cell-based; conditions: read-out: PGE2 % inhibition
Text: (§3) Inhibition of the proteolytic action of gingipains on immuno-regulatory proteins should lead to a reduction in the inflammatory host-response and subsequent tissue damage. Other bacterial enzymes, for example, METase and Cystalysin, are involved in degrading sulfur-containing amino acids to produce volatile sulfur compounds (VSC's) such as hydrogen sulfide or methyl mercaptan that lead to bad breath or oral malodor. Inhibition of METase and Cystalysin is thus an important function for oral care agents as are inhibitory activities against key host pro-inflammatory factors including matrix metalloproteinases (MMP's), cyclooxygenases (COX) and prostaglandin (PGE2).
as §2

Cystalysin = test: Inhibition of bacterial virulence factor Cystalysin; assay type: biochemical, P. gingivalis; conditions: at 200 uM for compounds, 0.001% for oils/extracts
Text: as §1, §3, §2

[1] = tested on: Gram Negative Anaerobes (GNA); test: Plaque Chip Assay (PCA), Gram Negative Anaerobes count; assay type: cell-based, oral bacteria from whole saliva of healthy human donors; conditions: vs. water
Protocol: (§4) In further studies, individual essential oil compounds and blends were evaluated for germ kill efficacy against oral anaerobes. For comparison, a cetyl pyridinium chloride solution (350 ppm) and a commercially available essential oil mouthrinse (Listerine® Cool Mint with ˜0.258% essential oil level) were tested.
(§5) Aqueous solutions (comprising 1% poloxamer 407 and 15% ethanol) were prepared with the essential oil load fixed at 0.15%. […] The test solutions were used neat in this experiment. The essential oil compounds and blends were tested using the Plaque Chip Assay (PCA) method, developed in the Procter & Gamble laboratories. The PCA method measures a combination of the following parameters: antibacterial efficacy (bacteria or germ kill), biofilm dispersion efficacy/chemical removal (chemical cleaning, e.g., detergency without germ kill), biofilm prevention and/or inhibition efficacy (prevention of biofilm growth) and active substantivity (cumulative efficacy).
(§6) The PCA method uses unmodified, whole saliva (obtained from multiple healthy human donors) to grow a biofilm containing relevant oral species on the surface of hydroxyapatite (HA) discs (the ‘chip’) mounted in the cap of plastic tubes (Nunc™ Cryovial). HA chips are subjected to five one-minute treatment and re-growth cycles, designed to mimic typical oral care product usage (dentifrice, rinse, gel) over a 2½ day period. Fresh saliva is replaced after each treatment, wherein the saliva used serves both as an inoculum of relevant oral bacteria, and as a nutrient source for the growth of the biofilm. Sixteen hours after the final treatment cycle, the biofilm remaining on the chip is removed, and the number of viable bacteria contained within it are measured by standard agar plate counting on ETSA (Enriched Trypticase Soy Agar) and ETSA-NV (Enriched Trypticase Soy Agar Supplemented with Nalidixic Acid and Vancomycin) media. The number of colony forming units per unit volume (cfu/ml) is measured for Total Facultative Anaerobes (TFA) and Gram Negative Anaerobes (GNA). Results are summarized in Table 3 below reported as Log Reduction in TFA and GNA colony forming units provided by test formulations vs. control, i.e., water or base aqueous solution (comprising 1% poloxamer 407 and 15% ethanol). Reductions in TFA or GNA bacterial counts vs. control are reasonably predictive of in vivo efficacy, in particular plaque removal efficacy and breath malodor reduction. […] Particularly for blends containing 3 or more components, the relative amounts of each component can be adjusted to provide the best germ kill efficacy along with the desired flavor profile.

METase = METase (Porphyromonas gingivalis, UniProt Q7MX71); test: Inhibition of bacterial virulence factor METase; assay type: biochemical, P. gingivalis; conditions: read-out: METase % inhibition
Sequence of METase (Q7MX71 whole entry): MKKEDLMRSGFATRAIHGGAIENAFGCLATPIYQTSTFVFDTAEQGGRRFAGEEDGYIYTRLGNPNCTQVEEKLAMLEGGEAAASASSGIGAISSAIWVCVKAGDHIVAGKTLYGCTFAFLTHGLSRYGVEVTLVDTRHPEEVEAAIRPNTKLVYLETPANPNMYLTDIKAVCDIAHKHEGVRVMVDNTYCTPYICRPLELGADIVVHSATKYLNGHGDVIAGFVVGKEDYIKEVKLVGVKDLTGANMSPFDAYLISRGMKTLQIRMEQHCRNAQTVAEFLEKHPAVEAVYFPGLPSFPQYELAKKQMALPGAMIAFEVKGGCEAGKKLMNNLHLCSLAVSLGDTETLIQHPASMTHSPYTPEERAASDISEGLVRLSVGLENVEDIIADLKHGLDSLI
Text: as §1, §3, §2

[2] = tested on: Total Facultative Anaerobes (TFA); test: Plaque Chip Assay (PCA), Total Facultative Anaerobes count; assay type: cell-based, oral bacteria from whole saliva of healthy human donors; conditions: vs. water
Protocol: as §4, §5, §6

COX-2 = target: T1, COX-2 (Homo sapiens, UniProt P35354); test: Inhibition of host inflammation factor COX-2; assay type: biochemical; conditions: read-out: COX-2 % inhibition
T1 sequence (P35354 18-604): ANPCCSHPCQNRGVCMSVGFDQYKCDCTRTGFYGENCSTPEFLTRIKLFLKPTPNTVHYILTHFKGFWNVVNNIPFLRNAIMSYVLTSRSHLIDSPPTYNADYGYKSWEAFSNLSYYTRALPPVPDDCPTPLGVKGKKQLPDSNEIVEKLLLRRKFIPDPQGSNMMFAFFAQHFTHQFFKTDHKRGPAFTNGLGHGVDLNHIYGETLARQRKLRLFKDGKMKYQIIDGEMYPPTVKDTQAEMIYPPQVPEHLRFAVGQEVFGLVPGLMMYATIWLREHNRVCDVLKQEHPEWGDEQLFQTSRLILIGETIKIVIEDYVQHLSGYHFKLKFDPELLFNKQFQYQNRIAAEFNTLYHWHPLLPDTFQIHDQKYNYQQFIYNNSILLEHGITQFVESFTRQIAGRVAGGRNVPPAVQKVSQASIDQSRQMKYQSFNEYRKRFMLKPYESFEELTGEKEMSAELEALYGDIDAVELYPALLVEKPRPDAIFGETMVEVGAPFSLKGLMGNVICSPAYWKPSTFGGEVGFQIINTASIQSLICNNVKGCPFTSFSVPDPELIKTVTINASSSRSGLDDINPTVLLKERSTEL
Text: as §1, §2

[3] = tested on: oral anaerobic bacterial biofilm containing Fusobacterium nucleatum; test: In vitro biofilm growth inhibition model (30 second exposure, MIC); assay type: cell-based; conditions: lowest concentration that completely inhibited biofilm growth following a 30 second exposure
Protocol: The method involves forming a bacterial biofilm in a plastic uncoated 12-well tissue culture plate. The culture material is removed from the wells and the biofilm is treated with a test solution or appropriate control usually for 30 seconds. Subsequently, the biofilm is washed twice with sterile saline and fresh medium is placed on the biofilm which is then incubated at 37° C. overnight. The next day, the culture in each well is suspended and the optical density determined to assess biofilm growth.

MMP (2, 3, 12) = test: Inhibition of host inflammation factor MMP (2, 3, 12); assay type: biochemical; conditions: at 200 uM for compounds, 0.001% for oils/extracts
Text: as §1, §2

COX-1 = COX-1 (Homo sapiens, UniProt P23219); test: Inhibition of host inflammation factor COX-1; assay type: biochemical; conditions: at 200 uM for compounds, 0.001% for oils/extracts
Sequence of COX-1 (P23219 24-599): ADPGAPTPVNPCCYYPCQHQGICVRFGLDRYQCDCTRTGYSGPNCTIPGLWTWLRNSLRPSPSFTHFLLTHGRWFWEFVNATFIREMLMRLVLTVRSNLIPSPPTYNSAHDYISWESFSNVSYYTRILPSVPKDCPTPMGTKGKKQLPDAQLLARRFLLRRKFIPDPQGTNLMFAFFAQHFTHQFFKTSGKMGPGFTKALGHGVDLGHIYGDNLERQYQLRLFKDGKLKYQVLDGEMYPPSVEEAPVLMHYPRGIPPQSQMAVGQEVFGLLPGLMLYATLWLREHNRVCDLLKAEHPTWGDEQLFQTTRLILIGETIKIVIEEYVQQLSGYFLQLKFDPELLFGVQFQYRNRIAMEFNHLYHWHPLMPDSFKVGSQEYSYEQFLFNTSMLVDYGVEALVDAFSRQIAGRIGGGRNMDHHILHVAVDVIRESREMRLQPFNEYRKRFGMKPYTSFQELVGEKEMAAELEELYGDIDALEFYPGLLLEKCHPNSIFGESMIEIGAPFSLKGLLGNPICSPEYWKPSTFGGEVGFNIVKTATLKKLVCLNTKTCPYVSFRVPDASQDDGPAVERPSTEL

[4] = essential oil at 0.15% solution, five one-minute treatments
[5] = at 200 uM for compounds, 0.001% for oils/extracts

Row | Compound | Gingipain % inhibition (Gingipain) | inhibition at 200 µM (PGE2) | Cystalysin % inhibition (Cystalysin) | Log Reduction in cfu/ml vs Control, GNA [1, 4] | inhibition at 200 µM (METase) | Log Reduction in cfu/ml vs Control, TFA [2, 4] | inhibition at 200 µM (COX-2) | Total Oil Level Inhibiting Biofilm Growth (MIC), single component [3] | MMP (2, 3, 12) % inhibition (MMP (2, 3, 12)) | Log Reduction in cfu/ml vs Control, GNA ([1]; 350 ppm solution) | Log Reduction in cfu/ml vs Control, TFA ([2]; 350 ppm solution) | inhibition at 200 µM (PGE2; [5]) | inhibition at 200 µM (COX-2; [5]) | inhibition at 200 µM (COX-1)
1 | Cc1ccc(C(C)C)cc1O [Carvacrol] | + (% inhibition <25% at 200 uM for compounds, 0.001% for oils/extracts) | > 75% | + (% inhibition <25% at 200 uM for compounds, 0.001% for oils/extracts) | 0.42 log cfu/ml | < 25% | 0.08 log cfu/ml | > 25% | 0.1% | + (% inhibition <25% at 200 uM for compounds, 0.001% for oils/extracts) |  |  |  |  | 
2 | CCCCCCCCCCCCCCCC[n+]1ccccc1 [Cetylpyridinium Chloride (CPC), Cetylpyridinium Chloride, reference compound] |  |  |  |  |  |  |  |  |  | 1.31 log cfu/ml | 1.45 log cfu/ml |  |  | 
3 | CC(C)=CCCC(C)=CC=O [Citral] | + (% inhibition <25% at 200 uM for compounds, 0.001% for oils/extracts) |  |  | 0.72 log cfu/ml | < 25% | 0.33 log cfu/ml |  | 0.2% | + (% inhibition <25% at 200 uM for compounds, 0.001% for oils/extracts) |  |  | > 50% |  | 
4 | CC12CCC(CC1)C(C)(C)O2 [Eucalyptol] | + (% inhibition <25% at 200 uM for compounds, 0.001% for oils/extracts) |  | + (% inhibition <25% at 200 uM for compounds, 0.001% for oils/extracts) | 0.38 log cfu/ml | < 25% | −0.06 log cfu/ml |  | 0.1% | + (% inhibition <25% at 200 uM for compounds, 0.001% for oils/extracts) |  |  | > 75% |  | 
5 | C=CCc1ccc(O)c(OC)c1 [Eugenol] | + (% inhibition <25% at 200 uM for compounds, 0.001% for oils/extracts) | > 75% | + (% inhibition <25% at 200 uM for compounds, 0.001% for oils/extracts) | 0.70 log cfu/ml | < 25% | 0.09 log cfu/ml | > 25% | 0.2% | + (% inhibition <25% at 200 uM for compounds, 0.001% for oils/extracts) |  |  |  |  | 
6 | CC(C)=CCC/C(C)=C/CO [Geraniol] |  |  | + (% inhibition <25% at 200 uM for compounds, 0.001% for oils/extracts) | 0.60 log cfu/ml | < 25% | 0.47 log cfu/ml |  | 0.1% | + (% inhibition <25% at 200 uM for compounds, 0.001% for oils/extracts) |  |  | > 25% | > 25% | > 50%
7 | Cc1ccc(C(C)C)c(O)c1 [Thymol, reference compound] |  |  |  |  |  |  |  | 0.1% |  |  |  |  |  | 

— patent US20080253976A1, “Personal Care Compositions Comprising An Antimicrobial Blend of Essential Oils or Constituents Thereof” (priority 2007, published 2008)
